Measurements: patent publication US20230176038A1, “Methods for Identifying Modulators of Insect Transient Receptor Potential Channels” (BASF Corporation, priority 2019, published 2023)

T1: Drosophila melanogaster Water witch fused at its carboxyl terminus with FLAG tags and AcGFP fluorescent … (Drosophila melanogaster)
T1 construct: TRPA channel subunit expressed in hamster CHO-K1 cells by adenovirus; also called Wtrw-FLAG; FLAG-tagged Water witch; not shown: FLAG tags and AcGFP fused in-frame at the carboxyl terminus
T1 chain: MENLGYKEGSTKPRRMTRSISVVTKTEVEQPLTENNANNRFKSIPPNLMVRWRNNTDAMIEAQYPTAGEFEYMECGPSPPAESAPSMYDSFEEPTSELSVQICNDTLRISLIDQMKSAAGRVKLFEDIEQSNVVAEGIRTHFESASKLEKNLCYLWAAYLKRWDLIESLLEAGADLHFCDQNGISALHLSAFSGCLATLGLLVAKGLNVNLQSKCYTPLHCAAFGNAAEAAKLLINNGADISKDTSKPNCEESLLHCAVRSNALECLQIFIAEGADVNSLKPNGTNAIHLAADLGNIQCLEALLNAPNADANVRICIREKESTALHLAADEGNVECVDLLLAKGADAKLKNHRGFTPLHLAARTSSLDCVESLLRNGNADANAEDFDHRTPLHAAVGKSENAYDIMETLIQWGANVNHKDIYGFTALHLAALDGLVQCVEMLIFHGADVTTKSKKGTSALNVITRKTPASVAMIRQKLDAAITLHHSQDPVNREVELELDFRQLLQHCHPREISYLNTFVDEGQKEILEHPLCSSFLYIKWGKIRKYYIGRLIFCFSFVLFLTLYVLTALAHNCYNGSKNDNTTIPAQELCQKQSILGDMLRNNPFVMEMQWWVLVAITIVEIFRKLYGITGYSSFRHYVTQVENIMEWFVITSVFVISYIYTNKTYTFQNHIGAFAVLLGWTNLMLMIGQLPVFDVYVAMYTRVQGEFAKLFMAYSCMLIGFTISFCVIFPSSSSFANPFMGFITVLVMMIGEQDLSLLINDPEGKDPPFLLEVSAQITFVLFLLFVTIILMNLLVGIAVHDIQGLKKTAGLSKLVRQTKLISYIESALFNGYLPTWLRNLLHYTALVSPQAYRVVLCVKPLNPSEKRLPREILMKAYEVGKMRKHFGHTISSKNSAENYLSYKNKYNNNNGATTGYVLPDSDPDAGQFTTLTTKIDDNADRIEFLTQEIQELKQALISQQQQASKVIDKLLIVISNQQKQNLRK

B1: Drosophila melanogaster Nanchung fused at its carboxyl terminus with HA tags and mCherry fluorescent protein (other)
chain: MGNTESNVTSGVKKQAGVSTQALYKFVNLKGGGLLVDMMKRACQTKQFAEIDHAIKTKVEPFLYNKGAGRYFPISKLVLLRNRDRPRTRQLPEIRALENPDDDFNIHDYCPEVSEAEYISNPTAYRFVCWDLNMRGAVGETILHLCLLNASSLHADLAKRLLKFYPKLILDIYMSDEYYGESVLHIAIVNEDPAMVKYLLDANADVQERCCGAFMSAEDTKFSRTDSPDHEYVALCPMTNYDGYVYWGEYPLSFAACLSQEECFRLVLARGADPDFQDTNGNTVLHMLVIYEKIEMFDVGYEVGTNIHIKNIQNLTPLTLAAKLGRVEMFFHVMSIEREIYWQLGSITCAAYPLLMIDTINEETGNINKDSVLNFVVFGDKLEHLELLDGVVIDLLKTKWDTFCKSRFYKQFYMFALYFLISLFSFILRPGPDAKDEDEDGANSTTAKSDLYRQNGSDSYHLHSKRATMTTEYKTFWLNFTEYYDPSEVEVLPAWWESYAQCPLMNLESDLAKLRIMAELLNFVGAILYLLVALREARFLGLKMFIENLMTAPSRVMFLFSCALMMTIPWLRVSCLTEIDDHVTVVIMLTTAPYFLFFCRGFKTVGPFVVMIYRMVMGDLLRFVSIYLVFVMGFSQAFYIIFLTFDNPSSPEDQDAESNPMPSPMESIVAMFLMSLTNFGDYYGAMVSTQHEYEAKILFFLFMVIVSVLLVNMLIAMMGNTYQKIAEIRNEWQRQWARIVLVVERSVPPAERLKNFMQYSQSMSDGRRALVLRLNMTEEKEEMKEVQEMKRIHQRFAKKRQMEREARALRRQQEYEKFFGTAPKSECSDNNNF
notes: TRPV channel subunit expressed in hamster CHO-K1 cells by adenovirus; For the co-immunoprecipitation the cells were lysed in Triton X-100 buffer; also called Nan-HA; HA-tagged Nanchung; not shown: HA tags and mCherry fused in-frame at the carboxyl terminus

Legend:
[1] = biological target: Nanchung (Nan) protein alone (Drosophila melanogaster, UniProt A0ACM8PYI9); assay: [3H]-afidopyropen saturation binding to membranes of CHO-K1 cells expressing Nanchung alone; settings: membranes from CHO-K1 cells expressing Nanchung individually; read-out: Kd, specific binding of tritium-labeled afidopyropen
[2] = biological target: complexes formed by Nanchung protein and Water witch protein (Nan + Wtrw) (Drosophila melanogaster, UniProt A0ACM8PYI9); assay: biochemical; assay type: binding
[3] = system: Water witch (Wtrw) protein alone; assay: [3H]-afidopyropen saturation binding to membranes expressing Water witch alone; design: species or system Drosophila melanogaster
Nanchung (Nan) = settings: previously shown; cited from earlier work
[4] = system: Nanchung and Water witch (Nan + Wtrw) complexes; assay: Calcium mobilization (fluo-4, FLIPR) in CHO-K1 cells co-expressing Nanchung and Water witch; settings: CHO-K1 cells co-expressing Nanchung and Water witch
Description: DNAs encoding for tagged TRP channels were delivered into CHO-K1 cells using adenoviruses. Adenovirus-mediated gene delivery allowed for expression of the gene of interest, optimize expression levels and stoichiometry of subunits, as well as prevention of possible toxic effects of insect TRP channels by maintaining virus-infected cells at room temperature.
To test the hypothesis that Water witch may also be involved in the action of PM and AP, Water witch was expressed in CHO-K1 cells either alone or in combination with Nanchung. Given that TRP channels are permeable for Ca2+, cell responces were measured by monitoring Ca2+ mobilization using Ca2+ sensitive fluorescent probe FLUO4.
Hamster CHO-K1 cells (ATCC ® CCL-61TM) were infected with adenoviruses expressing TRP channels individually or in combinations. The cells were kept overnight at 37° C., followed by 3 days at 25° C. The medium was changed two days after seeding. Calcium mobilization was detected using fluorescent calcium probe fluo-4AM (Life Technologies) and measured by FLIPR-TETRA instrument (Molecular Devices, Sunnyvale, CA). The cells were loaded with 50 µl of Hank’s buffered salt solution (HBSS) containing 4 µM fluo-4AM, 5 mM probenecid, 20 mM CaCl2, and 0.02% pluoronic for 2 hours at 25° C. The dye was then discarded, 50 µl of HBSS were added. The test compounds were dissolved in DMSO and added to the cells in 50 µl HBSS, yielding a final DMSO concentration of 0.2%. Fluorescence was monitored for 10 minutes at 1 second intervals at 470-495 nm/515-575 nm excitation/emission wavelengths. EC50 values were calculated using GraphPad Prism (GraphPad Software).

[5] = biological target: T1, Drosophila melanogaster Water witch …; assay: co-immunoprecipitation from lysates of adenovirus-transduced CHO-K1 cells; anti-FLAG M2 affinity gel, Western blot with anti-HA

Molecule	Kd [1] [nM]	Kd [2] [nM]	Binding of tritiated afidopyropen [3]	Response of Nanchung alone to stimulation (Nanchung (Nan))	Ca2+ mobilization response [4]	binding result [5]
C[C@]1(COC(=O)C2CC2)[C@@H]2C[C@H](O)[C@@]3(C)Oc4cc(-c5cccnc5)oc(=O)c4[C@H](O)[C@@H]3[C@@]2(C)CC[C@@H]1OC(=O)C1CC1 [afidopyropen]	4.5	0.048	negligible	does not respond	elicited calcium mobilization	
B1						binds
